Like-named read-outs stand apart in the source and are kept apart here. Where only a bound is given, the exact number is not on record here.

The target in the test is JAK3 enzyme (Homo sapiens (Human), UniProt P52333). In words: JAK Caliper Enzyme Assay at 4 μM or 1 mM ATP. In kind it is biochemical.
Setting [1] is: read-out: JAK3 (4 μM ATP) IC50, 4 μM ATP.
The mark [2] stands for this setting: read-out: JAK3 (1 mM ATP) IC50, 1 mM ATP.

Sequence of JAK3 enzyme (P52333 whole entry, species assumed): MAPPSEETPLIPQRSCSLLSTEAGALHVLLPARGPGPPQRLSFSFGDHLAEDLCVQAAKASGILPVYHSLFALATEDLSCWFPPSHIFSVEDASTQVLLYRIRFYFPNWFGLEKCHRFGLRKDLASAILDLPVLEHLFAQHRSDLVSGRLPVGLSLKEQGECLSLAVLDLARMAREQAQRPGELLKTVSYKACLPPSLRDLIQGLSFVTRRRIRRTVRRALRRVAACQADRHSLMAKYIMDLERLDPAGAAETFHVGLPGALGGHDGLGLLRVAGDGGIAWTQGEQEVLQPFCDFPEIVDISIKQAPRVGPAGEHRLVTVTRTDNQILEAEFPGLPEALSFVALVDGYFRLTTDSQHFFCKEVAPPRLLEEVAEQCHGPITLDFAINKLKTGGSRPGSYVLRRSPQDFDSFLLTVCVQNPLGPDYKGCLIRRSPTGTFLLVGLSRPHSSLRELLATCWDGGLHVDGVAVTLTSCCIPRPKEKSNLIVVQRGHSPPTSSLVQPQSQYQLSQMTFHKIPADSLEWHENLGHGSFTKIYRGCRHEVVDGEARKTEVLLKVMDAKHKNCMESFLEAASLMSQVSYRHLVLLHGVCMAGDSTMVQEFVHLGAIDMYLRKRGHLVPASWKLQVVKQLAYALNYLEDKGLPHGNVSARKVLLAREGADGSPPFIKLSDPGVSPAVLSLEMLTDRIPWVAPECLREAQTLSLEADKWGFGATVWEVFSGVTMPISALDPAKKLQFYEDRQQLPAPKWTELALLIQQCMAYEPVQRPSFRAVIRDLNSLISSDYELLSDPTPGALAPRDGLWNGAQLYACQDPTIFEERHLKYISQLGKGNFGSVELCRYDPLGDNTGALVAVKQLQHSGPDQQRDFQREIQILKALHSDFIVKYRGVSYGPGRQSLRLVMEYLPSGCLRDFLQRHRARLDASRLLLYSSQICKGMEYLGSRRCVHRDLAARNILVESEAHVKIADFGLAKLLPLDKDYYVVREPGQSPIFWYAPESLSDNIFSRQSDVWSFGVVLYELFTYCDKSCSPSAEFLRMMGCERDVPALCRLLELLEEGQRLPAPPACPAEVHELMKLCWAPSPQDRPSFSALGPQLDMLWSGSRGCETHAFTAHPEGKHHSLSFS

In general, IC50 refers to the midpoint of a concentration-inhibition curve. Take `C=CC(=O)N1CC[C@@H](CNc2cnc3[nH]cc(C(=O)NC(C)C)c3n2)C1` [Example 191, 2-({[(3S)-1-acryloylpyrrolidin-3-yl]methyl}amino)-N-(propan-2-yl)-5H-pyrrolo[2,3-b]pyrazine-7-carboxamide]: the IC50 worked out at 1.5 nM under setting [1] and 138 nM under setting [2].
The matching figures for `C=CC(=O)N1CCC(Nc2cnc3[nH]cc(C(=O)NCCCC#N)c3n2)CC1` [Example 242, 2-[(1-acryloylpiperidin-4-yl)amino]-N-(3-cyanopropyl)-5H-pyrrolo[2,3-b]pyrazine-7-carboxamide]: 0.1 nM and 10.7 nM.
For `C=CC(=O)N1CCC[C@@H](Nc2ncnc3[nH]cc(Cc4ccc(O)cc4)c23)C1` [Example 137, 1-[(3R)-3-{[5-(4-Hydroxybenzyl)-7H-pyrrolo[2,3-d]pyrimidin-4-yl]amino}piperidin-1-yl]prop-2-en-1-one], the IC50 under setting [1] was determined as 0.3 nM.
On the same count and under the same terms, the figure for `C=CC(=O)N1CCC[C@@H](Nc2ncnc3[nH]cc(C(=O)NCC)c23)C1` [Example 144, 4-{[(3R)-1-acryloylpiperidin-3-yl]amino}-N-ethyl-7H-pyrrolo[2,3-d]pyrimidine-5-carboxamide] is 139 nM.
With `C=CC(=O)N1CCN(c2cnc3[nH]cc(C(=O)NC(C)C)c3n2)C[C@H]1C(C)C` [Example 294, 2-[(3R)-4-acryloyl-3-(propan-2-yl)piperazin-1-yl]-N-(propan-2-yl)-5H-pyrrolo[2,3-b]pyrazine-7-carboxamide], the IC50 under setting [1] was found to be 1.9 nM and the IC50 under setting [2] was determined as 235 nM.
With `C=CC(=O)N1CCC[C@@H](Nc2c(C#N)cnc3[nH]ccc23)C1` [Example 156, 4-{[(3R)-1-Acryloylpiperidin-3-yl]amino}-1H-pyrrolo[2,3-b]pyridine-5-carbonitrile], under setting [1], the IC50 was 7.2 nM.
As to `C=CC(=O)N1CC[C@H](F)[C@@H](Nc2ncnc3[nH]ccc23)C1` [Example 4, 1-((3S,4S)-3-((7H-pyrrolo[2,3-d]pyrimidin-4-yl)amino)-4-fluoropiperidin-1-yl)prop-2-en-1-one], the IC50 is 0.5 nM under setting [1] and 32.1 nM under setting [2].
The matching figures for `C=CC(=O)N1CCC[C@@H](Nc2ncnc3[nH]cc(-c4cccnc4)c23)C1` [Example 26, 1-[(3R)-3-{[5-(pyridin-3-yl)-7H-pyrrolo[2,3-d]pyrimidin-4-yl]amino}piperidin-1-yl]prop-2-en-1-one]: 1.6 nM and 153 nM.
The matching figures for `C=CC(=O)N1CCC(Nc2cnc3[nH]cc(C(=O)NCC4CC(F)(F)C4)c3n2)CC1` [Example 238, 2-[(1-acryloylpiperidin-4-yl)amino]-N-[(3,3-difluorocyclobutyl)methyl]-5H-pyrrolo[2,3-b]pyrazine-7-carboxamide]: 0.2 nM and 9.3 nM.
Take `C=CC(=O)N1CCC(Nc2cnc3[nH]cc(C(=O)NCC4CCCC4)c3n2)CC1` [Example 270, 2-[(1-acryloylpiperidin-4-yl)amino]-N-(cyclopentylmethyl)-5H-pyrrolo[2,3-b]pyrazine-7-carboxamide]: the IC50 by setting is: under setting [1], less than 0.1 nM; under setting [2], 8.6 nM.
The matching figures for `C=CC(=O)N1CC(Nc2cnc3[nH]cc(C(=O)NC(C)C)c3n2)C1` [Example 188, 2-[(1-acryloylazetidin-3-yl)amino]-N-(propan-2-yl)-5H-pyrrolo[2,3-b]pyrazine-7-carboxamide]: 0.3 nM and 8.8 nM.
On the same counts, the results for `C=CC(=O)N1CCC(Nc2cnc3[nH]cc(C(=O)NCC(C)(C)C)c3n2)CC1` [Example 271, 2-[(1-acryloylpiperidin-4-yl)amino]-N-(2,2-dimethylpropyl)-5H-pyrrolo[2,3-b]pyrazine-7-carboxamide] are 0.4 nM and 14.9 nM.
For `C=CC(=O)N1CCN(c2cnc3[nH]cc(C(=O)NC(C)C)c3n2)[C@H](C2CC2)C1` [Example 309, 2-[(2R)-4-acryloyl-2-cyclopropylpiperazin-1-yl]-N-(propan-2-yl)-5H-pyrrolo[2,3-b]pyrazine-7-carboxamide], the IC50 by setting is: under setting [1], 6.6 nM; under setting [2], 814 nM.
The matching figures for `C=CC(=O)N1CCC(Nc2cnc3[nH]cc(C(=O)NC(C)(C)C)c3n2)CC1` [Example 266, 2-[(1-acryloylpiperidin-4-yl)amino]-N-tert-butyl-5H-pyrrolo[2,3-b]pyrazine-7-carboxamide]: 0.3 nM and 13.6 nM.
On the same counts, the results for `C=CC(=O)N1C[C@H](Nc2ncnc3[nH]cc(C#N)c23)CC[C@@H]1C` [Example 163, 4-{[(3R,6S)-1-Acryloyl-6-methylpiperidin-3-yl]amino}-7H-pyrrolo[2,3-d]pyrimidine-5-carbonitrile] are 0.6 nM and 47.1 nM.
With `C=CC(=O)N1CCC[C@@H](Nc2ncnc3[nH]cc(CC)c23)C1` [Example 44, 1-{(3R)-3-[(5-ethyl-7H-pyrrolo[2,3-d]pyrimidin-4-yl)amino]piperidin-1-yl}prop-2-en-1-one], the IC50 was found to be 0.3 nM under setting [1] and 168 nM under setting [2].
On the same counts, the results for `C=CC(=O)N1CC[C@H]2CCN(c3ncnc4[nH]cc(C(C)=O)c34)[C@H]2C1` [Example 111, 1-[(3aR,7aR)-1-(5-Acetyl-7H-pyrrolo[2,3-d]pyrimidin-4-yl)octahydro-6H-pyrrolo[2,3-c]pyridin-6-yl]prop-2-en-1-one] are 39.2 nM and 4740 nM.
On the same counts, the results for `C=CC(=O)N1CCC(Nc2cnc3[nH]cc(C(=O)N[C@H](C)CC)c3n2)CC1` [Example 289, 2-[(1-acryloylpiperidin-4-yl)amino]-N-[(2R)-butan-2-yl]-5H-pyrrolo[2,3-b]pyrazine-7-carboxamide] are 0.3 nM and 7.1 nM.
With `C=CC(=O)N1C[C@H](Nc2ncnc3[nH]cc(Cl)c23)CC[C@@H]1C` [Example 18, 1-((2S,5R)-5-((5-Chloro-7H-pyrrolo[2,3-d]pyrimidin-4-yl)amino)-2-methylpiperidin-1-yl)prop-2-en-1-one], the IC50 by setting is: under setting [1], 0.2 nM; under setting [2], 16.1 nM.
Take `C=CC(=O)N1CCCN(c2cnc3[nH]cc(C(=O)NC(C)C)c3n2)CC1` [Example 185, 2-(4-acryloyl-1,4-diazepan-1-yl)-N-(propan-2-yl)-5H-pyrrolo[2,3-b]pyrazine-7-carboxamide]: the IC50 was 20.4 nM under setting [1] and 1460 nM under setting [2].
As for `C=CC(=O)N1CC[C@H](Nc2cnc3[nH]cc(C(=O)NC(C)C)c3n2)C1` [Example 171, 2-{[(3S)-1-acryloylpyrrolidin-3-yl]amino}-N-(propan-2-yl)-5H-pyrrolo[2,3-b]pyrazine-7-carboxamide], the IC50 was found to be 0.4 nM under setting [1] and 32.7 nM under setting [2].
On the same counts, the results for `C=CC(=O)NC[C@@]12C[C@@H]1CN(c1cnc3[nH]cc(C(=O)NC(C)C)c3n1)C2` [Example 183, 2-{(1R,5S)-1-[(acryloylamino)methyl]-3-azabicyclo[3.1.0]hex-3-yl}-N-(propan-2-yl)-5H-pyrrolo[2,3-b]pyrazine-7-carboxamide] are 9.6 nM and 794 nM.
In the case of `C=CC(=O)N1CC[C@@H](Nc2cnc3[nH]cc(C(=O)NC(C)C)c3n2)[C@@H](F)C1` [Example 320, 2-{[(3S,4R)-1-acryloyl-3-fluoropiperidin-4-yl]amino}-N-(propan-2-yl)-5H-pyrrolo[2,3-b]pyrazine-7-carboxamide], the IC50 runs as follows: under setting [1], 0.4 nM; under setting [2], 10.7 nM.
On the same counts, the results for `C=CC(=O)N1CCC(Nc2cnc3[nH]cc(C(=O)NC45CC(C4)C5)c3n2)CC1` [Example 281, 2-[(1-acryloylpiperidin-4-yl)amino]-N-(bicyclo[1.1.1]pent-1-yl)-5H-pyrrolo[2,3-b]pyrazine-7-carboxamide] are 0.4 nM and 5.2 nM.
Turning to `C=CC(=O)N1CCC(Oc2cnc3[nH]cc(-c4ccc(C)nc4)c3n2)CC1` [Example 214, 1-(4-{[7-(6-methylpyridin-3-yl)-5H-pyrrolo[2,3-b]pyrazin-2-yl]oxy}piperidin-1-yl)prop-2-en-1-one], the IC50 stood at 2.3 nM under setting [1] and 308 nM under setting [2].
Turning to `C=CC(=O)N1CCC(Nc2cnc3[nH]cc(C(=O)N[C@@H](C)CC)c3n2)CC1` [Example 285, 2-[(1-acryloylpiperidin-4-yl)amino]-N-[(2S)-butan-2-yl]-5H-pyrrolo[2,3-b]pyrazine-7-carboxamide], the IC50 stood at 0.3 nM under setting [1] and 8.5 nM under setting [2].
On the same counts, the results for `C=CC(=O)N1C[C@@H](C#N)C[C@@H](Nc2ncnc3[nH]ccc23)C1` [Example 58, (3S,5R)-5-((7H-pyrrolo[2,3-d]pyrimidin-4-yl)amino)-1-acryloylpiperidine-3-carbonitrile] are 2.5 nM and 361 nM.
On to `C=CC(=O)N1CCN(c2cnc3[nH]cc(C(=O)NC(C)C)c3n2)CC1` [Example 174, 2-(4-acryloylpiperazin-1-yl)-N-(propan-2-yl)-5H-pyrrolo[2,3-b]pyrazine-7-carboxamide], for which the IC50 by setting is: under setting [1], 0.4 nM; under setting [2], 34.8 nM.
As for `C=C(C)C(=O)N1CCC[C@@H](N2CC(C)c3c[nH]c4ncnc2c34)C1` (mixture of isomers) [Example 153, 2-Methyl-1-[(3R)-3-(3-methyl-3,4-dihydro-1,5,6,8-tetraazaacenaphthylen-5 (1H)-yl)piperidin-1-yl]prop-2-en-1-one], under setting [1], the IC50 was found to be 9440 nM.
Turning to `C=CC(=O)N1CCC(Oc2cnc3[nH]cc(-c4cncnc4)c3n2)CC1` [Example 215, 1-(4-{[7-(pyrimidin-5-yl)-5H-pyrrolo[2,3-b]pyrazin-2-yl]oxy}piperidin-1-yl)prop-2-en-1-one], the IC50 under setting [1] stood at 2.9 nM and the IC50 under setting [2] came out at 386 nM.
On the same counts, the results for `C=CC(=O)N1CCC(Nc2cnc3[nH]cc(C(=O)N[C@@H](C(C)C)[C@H](O)C(F)(F)F)c3n2)CC1` [Example 252, 2-[(1-acryloylpiperidin-4-yl)amino]-N-[(2S,3S)-1,1,1-trifluoro-2-hydroxy-4-methylpentan-3-yl]-5H-pyrrolo[2,3-b]pyrazine-7-carboxamide] are 0.5 nM and 37.2 nM.

The values above are taken from patent US20250134869A1, “Pyrrolo[2,3-d]pyrimidinyl, Pyrrolo[2,3-b]pyrazinyl and Pyrrolo[2,3-d]pyridinyl Acryla-mides” (Pfizer Inc, priority 2021, published 2025).
